Test results from patent US12077503B2, “Substituted cyclic amides and their use as herbicides” (FMC CORPORATION, priority 2015, dated 2024).

Tests used:
Type in all cases: in vivo
[1] = tested on: barnyardgrass (Echinochloa crus-galli); assay: Test B flooded paddy test; conditions: Echinochloa crus-galli, 250 g ai/ha, Flood; 0 to 100 scale where 0 is no effect and 100 is complete control; read-out: Barnyardgrass plant response rating
How it was run: (§1)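 Evaluation by eye, against controls, occurred 13–15 d post-treatment in a greenhouse, using a 0 (no effect) to 100 (complete control) scale. Application was into the paddy water, 3 cm deep over the soil, on 2-leaf plants.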

rice (Oryra sativa) = assay: Test B flooded paddy test; conditions: Oryza sativa, 250 g ai/ha, Flood; 0 to 100 scale where 0 is no effect and 100 is complete control; read-out: Rice plant response rating
How it was run: as §1

[2] = tested on: sedge, umbrella (small-flower umbrella sedge, Cyperus difformis); assay: Test B flooded paddy test; conditions: Cyperus difformis, 250 g ai/ha, Flood; 0 to 100 scale where 0 is no effect and 100 is complete control; read-out: Sedge, Umbrella plant response rating
How it was run: as §1

[3] = tested on: ducksalad (Heteranthera limosa); assay: Test B flooded paddy test; conditions: Heteranthera limosa, 250 g ai/ha, Flood; 0 to 100 scale where 0 is no effect and 100 is complete control; read-out: Ducksalad plant response rating
How it was run: as §1

[4] = tested on: pigweed (Amaranthus retroflexus); assay: Test A postemergence; conditions: Amaranthus retroflexus, post-emergence, 240 h
How it was run: (§2)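 Seeds sprayed preemergence with a directed soil spray, or plants at 2 to 10 cm height and one- to two-leaf stage sprayed postemergence, with test chemicals in a non-phytotoxic solvent mixture containing surfactant, in loam soil–sand blend. Injury rated visually against untreated controls after about 10 d in greenhouse, 0 (no effect) to 100 (complete control).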

Kochia (Kochia scoparia) [5] = assay: Test A postemergence; conditions: Bassia scoparia, post-emergence, 240 h
How it was run: as §2

[6] = tested on: Galium (catchweed bedstraw, Galium aparine); assay: Test A postemergence; conditions: Galium, post-emergence, 240 h
How it was run: as §2

[7] = tested on: giant foxtail (Setaria faberii); assay: Test A postemergence; conditions: Setaria faberi, post-emergence, 240 h
How it was run: as §2

[8] = tested on: wheat (Triticum aestivum); assay: Test A postemergence; conditions: Triticum aestivum, post-emergence, 240 h
How it was run: as §2

[9] = tested on: pigweed (Amaranthus retroflexus); assay: Test A preemergence; conditions: Amaranthus retroflexus, pre-emergence, 240 h, preemergence, 0 to 100 scale where 0 is no effect and 100 is complete control, read-out: Pigweed plant response rating
[10] = tested on: ryegrass, Italian (Italian ryegrass, Lolium multiflorum); assay: Test A preemergence; conditions: Lolium multiflorum, pre-emergence, 240 h, preemergence, 0 to 100 scale where 0 is no effect and 100 is complete control, read-out: Ryegrass, Italian plant response rating
How it was run: as §2

[11] = tested on: ragweed (common ragweed, Ambrosia elatior); assay: Test A preemergence; conditions: Ambrosia artemisiifolia, pre-emergence, 240 h, preemergence, 0 to 100 scale where 0 is no effect and 100 is complete control, read-out: Ragweed plant response rating
How it was run: as §2

Kochia (Kochia scoparia) [12] = assay: Test A preemergence; conditions: Bassia scoparia, pre-emergence, 240 h, preemergence, 0 to 100 scale where 0 is no effect and 100 is complete control, read-out: Kochia plant response rating
How it was run: as §2

[13] = tested on: giant foxtail (Setaria faberii); assay: Test A preemergence; conditions: Setaria faberi, pre-emergence, 240 h, preemergence, 0 to 100 scale where 0 is no effect and 100 is complete control, read-out: Foxtail, Giant plant response rating
How it was run: as §2

[14] = tested on: barnyardgrass (Echinochloa crus-galli); assay: Test A preemergence; conditions: Echinochloa crus-galli, pre-emergence, 240 h, preemergence, 0 to 100 scale where 0 is no effect and 100 is complete control, read-out: Barnyardgrass plant response rating
How it was run: as §2

[15] = 125 g ai/ha, visual injury rating, approximately 10 d

Cc1cc([C@H]2CNC(=O)[C@@H]2C(=O)Nc2ccccc2S(C)(=O)=O)ccc1Cl [Compound 1246]
pest or weed control at 250 g/ha [1]: 0% | pest or weed control at 250 g/ha (rice (Oryra sativa)): 0% | pest or weed control at 250 g/ha [2]: 0% | pest or weed control at 250 g/ha [3]: 100% | pest or weed control at 125 g/ha ([4]; 125 g ai/ha, postemergence, visual injury vs untreated controls after approx. 10 d, 0 = no effect, 100 = complete control, read-out: Pigweed plant response rating (0 to 100 scale)): 0% | pest or weed control at 500 g/ha ([4]; Postemergence, 500 g ai/ha, visual injury, 0 to 100 scale (0 no effect, 100 complete control), approx. 10 d, read-out: Plant response rating, Pigweed): 20% | pest or weed control at 125 g/ha (Kochia (Kochia scoparia) [5]; 125 g ai/ha, postemergence, visual injury vs untreated controls after approx. 10 d, 0 = no effect, 100 = complete control, read-out: Kochia plant response rating (0 to 100 scale)): 0% | pest or weed control at 500 g/ha (Kochia (Kochia scoparia) [5]; Postemergence, 500 g ai/ha, visual injury, 0 to 100 scale (0 no effect, 100 complete control), approx. 10 d, read-out: Plant response rating, Kochia): 20% | pest or weed control at 125 g/ha ([6]; 125 g ai/ha, postemergence, visual injury vs untreated controls after approx. 10 d, 0 = no effect, 100 = complete control, read-out: Galium plant response rating (0 to 100 scale)): 50% | pest or weed control at 500 g/ha ([6]; Postemergence, 500 g ai/ha, visual injury, 0 to 100 scale (0 no effect, 100 complete control), approx. 10 d, read-out: Plant response rating, Galium): 60% | pest or weed control at 125 g/ha ([7]; 125 g ai/ha, postemergence, visual injury vs untreated controls after approx. 10 d, 0 = no effect, 100 = complete control, read-out: Foxtail, Giant plant response rating (0 to 100 scale)): 20% | pest or weed control at 500 g/ha ([7]; Postemergence, 500 g ai/ha, visual injury, 0 to 100 scale (0 no effect, 100 complete control), approx. 10 d, read-out: Plant response rating, Foxtail, Giant): 20% | plant injury at 125 g/ha ([8]; 125 g ai/ha, postemergence, visual injury vs untreated controls after approx. 10 d, 0 = no effect, 100 = complete control, read-out: Wheat plant response rating (0 to 100 scale)): 0% | plant injury at 500 g/ha ([8]; Postemergence, 500 g ai/ha, visual injury, 0 to 100 scale (0 no effect, 100 complete control), approx. 10 d, read-out: Plant response rating, Wheat): 40% | pest or weed control at 125 g/ha [9, 15]: 0% | pest or weed control at 500 g/ha ([9]; 500 g ai/ha): 0% | pest or weed control at 125 g/ha [10, 15]: 0% | pest or weed control at 500 g/ha ([10]; 500 g ai/ha): 50% | pest or weed control at 125 g/ha [11, 15]: 40% | pest or weed control at 500 g/ha ([11]; 500 g ai/ha): 60% | pest or weed control at 125 g/ha (Kochia (Kochia scoparia) [12]; [15]): 60% | pest or weed control at 500 g/ha (Kochia (Kochia scoparia) [12]; 500 g ai/ha): 80% | pest or weed control at 125 g/ha [13, 15]: 50% | pest or weed control at 500 g/ha ([13]; 500 g ai/ha): 70% | pest or weed control at 125 g/ha [14, 15]: 60% | pest or weed control at 500 g/ha ([14]; 500 g ai/ha): 80%
